Where two headings read alike, the source gives them in different places.
Key:
[1] = tested on: Mouse macrophage-like cell line RAW; assay: Immunostimulatory effect on mouse macrophage-like cell line (CCK-8 cell proliferation, Stimulation Index); format: cell-based; settings: 24 hr, compared to well added only with medium
[2] = tested on: Human monocyte cell line THP-1; assay: Immunostimulatory effect on human monocyte cell line (CCK-8 cell proliferation, Stimulation Index); format: cell-based; settings: 24 hr, compared to well added only with medium
[3] = tested on: anti OVA-specific IgE antibody; assay: Allergy induction activity test: anti OVA-specific IgE antibody in serum; format: in vivo, BALB/c mice; settings: dorsal-subcutaneous, compared to OVA single administration group
Method: 8-Week-old female BALB/c mice were divided into groups (N=6), and each group was primarily immunized by dorsal-subcutaneous administration of (1) ovalbumin (OVA) (10 μg) dissolved in saline as an antigen (OVA single administration group), (2) OVA (10 μg) and, as an adjuvant, N,N′-bis(2-heptylundecanoyl)-L-cystine dimethyl ester (SZ23) (2.56 μmol) (corresponding to 0.2 mg based on aluminum hydroxide gel adjuvant) dissolved in saline (SZ23; 2.56 μmol addition group), (3) OVA (10 μg) and SZ23; 0.256 μmol dissolved in saline (SZ23; 0.256 μmol addition group), (4) OVA (10 μg) and SZ23; 0.0256 μmol dissolved in saline (SZ23; 0.0256 μmol addition group), (5) OVA (10 μg) and aluminum hydroxide gel adjuvant (2.56 μmol) (0.2 mg) dissolved in saline (ALUM addition group, positive control), and (6) saline (saline single administration group), per each mouse. One week later, the secondary immunization was carried out by dorsal-subcutaneous administration of solutions similar to those of the above-mentioned (1) to (6) again. Two weeks from the secondary immunization, the whole blood and spleen were extracted under anesthesia, and the obtained serum sample was measured for anti OVA-specific IgG1 subclass antibody.
The serum sample obtained in Example 2 was measured for an anti OVA-specific IgE antibody. The measurement method of the anti OVA-specific IgE antibody is as follows.
DS mouse IgE ELISA (OVA) kit manufactured by DS Pharma Biomedical Co., Ltd. was used. The protocol is briefly shown below.
The serum sample and a standard reagent for drawing an analytical curve were diluted with a buffer and, after stirring, left standing at room temperature for 10 min. The sample and the standard solution were added to a plate bound with an IgE capture antibody in advance and, after stirring, the mixture was left standing at room temperature for 60 min. […] A reaction quenching liquid was added, the mixture was stirred, and the absorbance (OD Value=450 nm) was immediately measured.

[4] = tested on: anti OVA-specific IgG1 subclass antibody; assay: Adjuvant activity test: anti OVA-specific IgG1 subclass antibody in serum after subcutaneous immunization with OVA; format: in vivo, BALB/c mice; settings: for production of anti OVA-specific IgG1 subclass antibody: dorsal-subcutaneous
Method: One week later, the secondary immunization was carried out by dorsal-subcutaneous administration of solutions similar to those of the above-mentioned (1) to (5) again. Two weeks from the secondary immunization, the whole blood and spleen were extracted under anesthesia, and the obtained serum sample was measured for anti OVA-specific IgG1 subclass antibody. A method for measurement of the anti OVA-specific IgG1 subclass antibody in Example 1, and the following Examples 2, 4, 7 to 10 and 13 to 16 is as follows.
To a 96 well plate was added 5 μg/ml OVA at 100 μl/well, and the mixture was incubated at 4° C. overnight. After incubation, the mixture was washed three times with 200 μl of PBS-T (PBS (phosphate buffered saline)+0.05% (v/v) Tween 20) per well, and blocked with 100 μl of 5% FCS (fatal calf serum)/PBS solution per well at room temperature for 1 to 2 hr. Thereafter, the mixture was washed three times with PBS-T (200 μl/well), a diluted serum sample (100 μl/well) or the same amount of 5% FCS/PBS solution as a control was added, and the mixture was incubated at 37° C. for 1 hr. Thereafter, the mixture was washed five times with PBS-T (200 μl/well), a diluted biotinylated anti-mouse IgG1 antibody (100 μl/well) was added, and the mixture was incubated at 37° C. for 45 min. Thereafter, the mixture was washed five times with PBS-T (200 μl/well), a diluted anti-biotin-HRP antibody was added (100 μl/well), and the mixture was incubated at 37° C. for another 30 min. Thereafter, the mixture was washed five times with PBS-T (200 μl/well), TMB substrate solution was added (100 μl/well), and the mixture was incubated at room temperature for 10 to 15 min. Thereafter, a reaction quenching liquid (2N sulfuric acid solution) was added (50 μl/well) to discontinue a color developing reaction, and the absorbance (OD Value=450 nm) was measured by a microplate reader.
One week later, the secondary immunization was carried out by dorsal-subcutaneous administration of solutions similar to those of the above-mentioned (1) to (6) again. Two weeks from the secondary immunization, the whole blood and spleen were extracted under anesthesia, and the obtained serum sample was measured for anti OVA-specific IgG1 subclass antibody.
8-Week-old female BALB/c mice were divided into groups (N=6), and each group was primarily immunized by dorsal-subcutaneous administration of (1) ovalbumin (OVA) ([…] administration group), (2) OVA (10 μg) and, as an adjuvant, N,N′-bis(2-heptylundecanoyl)-L-cystine dimethyl ester (SZ23) ([…]), (3) OVA (10 μg) and N,N′-bis(dodecanoyl)-L-cystine dimethyl ester (SZ24) ([…]), and (4) saline (saline single administration group), each per mouse. One week later, the secondary immunization was carried out by dorsal-subcutaneous administration of solutions similar to those of the above-mentioned (1) to (4) again. Two weeks from the secondary immunization, the whole blood was extracted under anesthesia, and the obtained serum sample was measured for anti OVA-specific IgG1 subclass antibody. SZ24 is disclosed in JP-A-4-230359, which is incorporated herein by reference in its entirety.
8-Week-old female BALB/c mice were divided into groups (N=6), and each group was primarily immunized by dorsal-subcutaneous administration of (1) ovalbumin (OVA) ([…] administration group), (2) OVA (10 μg) and, as an adjuvant, N,N′-bis(2-tetradecylhexadecanoyl)-L-cystine dimethyl ester (SZ37) (0.256 μmol) added to saline, (3) OVA (10 μg) and N,N′-bis(2-octadecyleicosanoyl)-L-cystine dimethyl ester (SZ38) (0.256 μmol) added to saline, (4) OVA (10 μg) and SZ37 (0.256 μmol) dissolved or dispersed in 5% αCD-added saline, and (5) OVA (10 μg) and SZ38 (0.256 μmol) dissolved or dispersed in 5% αCD-added saline, each per mouse. One week later, the secondary immunization was carried out by dorsal-subcutaneous administration of solutions or dispersions similar to those of the above-mentioned (1) to (5) again. […]

[5] = tested on: anti-influenza IgA antibody; assay: Intranasal influenza vaccine adjuvant test: anti-influenza IgA antibody in nasal cavity wash; format: in vivo, BALB/c mice; settings: 4.92 μg with influenza vaccine 20 μl, twice, compared to influenza vaccine single administration group
Method: (§1) 8-Week-old female BALB/c mice were divided into groups (N=6), and each group was primarily immunized by intranasal administration of (1) saline, (2) influenza vaccine (Influenza HA Vaccine “SEIKEN”, manufactured by Denka Seiken Co. Ltd.) (20 μl) diluted with saline (influenza vaccine single administration group) as an antigen, (3) influenza vaccine (20 μl) and N,N′-bis(octadecanoyl)-L-cystine dimethyl ester (SZ35) (0.55 μg) as an adjuvant diluted with saline, (4) influenza vaccine (20 μl) and N,N′-bis(octadecanoyl)-L-cystine dimethyl ester (SZ35) (1.64 μg) as an adjuvant diluted with saline, and (5) influenza vaccine (20 μl) and N,N′-bis(octadecanoyl)-L-cystine dimethyl ester (SZ35) (4.92 μg) as an adjuvant diluted with saline, each per mouse. […] The obtained serum samples were measured for anti-influenza IgG1 subclass antibody and HI titer assay (hemagglutination inhibition test) was performed. […]
(§2) 0.5 μg/ml influenza vaccine (Influenza HA Vaccine “SEIKEN”, manufactured by Denka Seiken Co. Ltd.) was added to a 96 well plate by 100 μl per well, and the mixture was incubated at 4° C. overnight. […] Thereafter, a reaction quenching liquid (2N sulfuric acid solution) was added (50 μl/well) to discontinue a color developing reaction, and the absorbance (OD Value=450 nm) was measured by a microplate reader.

[6] = tested on: anti-influenza IgG antibody; assay: Intranasal influenza vaccine adjuvant test: anti-influenza IgG antibody in nasal cavity wash; format: in vivo, BALB/c mice; settings: 4.92 μg with influenza vaccine 20 μl, twice, compared to influenza vaccine single administration group
Method: as §1, §2

[7] = tested on: HA antigen (A/California/7/2009(H1N1)); format: in vivo, BALB/c mice; settings: intranasal, twice, compared to influenza vaccine single administration group
[8] = tested on: anti-influenza IgG1 subclass antibody; assay: Intranasal influenza vaccine adjuvant test: anti-influenza IgG1 subclass antibody in serum; format: in vivo, BALB/c mice; settings: twice, compared to influenza vaccine single administration group
Method: 8-Week-old female BALB/c mice were divided into groups (N=6), and each group was primarily immunized by intranasal administration of (1) saline, (2) influenza vaccine (Influenza HA Vaccine “SEIKEN”, manufactured by Denka Seiken Co. Ltd.) (20 μl) diluted with saline (influenza vaccine single administration group) as an antigen, (3) influenza vaccine (20 μl) and N,N′-bis(octadecanoyl)-L-cystine dimethyl ester (SZ35) (0.55 μg) as an adjuvant diluted with saline, (4) influenza vaccine (20 μl) and N,N′-bis(octadecanoyl)-L-cystine dimethyl ester (SZ35) (1.64 μg) as an adjuvant diluted with saline, and (5) influenza vaccine (20 μl) and N,N′-bis(octadecanoyl)-L-cystine dimethyl ester (SZ35) (4.92 μg) as an adjuvant diluted with saline, each per mouse. Two weeks later, the secondary immunization was carried out by intranasal administration of solutions similar to those of the above-mentioned (1) to (5) again. Two weeks from the secondary immunization, the whole blood was extracted under anesthesia, and nasal cavity washing was performed. The obtained serum samples were measured for anti-influenza IgG1 subclass antibody and HI titer assay (hemagglutination inhibition test) was performed. As a nasal cavity wash, thorax of mouse was opened to expose trachea, the trachea was incised, an Atom venous catheter with clause was inserted and 1 mL of saline was injected. The liquid discharged from the nose was centrifuged at 10000 g for 3 min, and the supernatant was recovered and used as a nasal cavity wash sample. The nasal cavity wash sample was subjected to the measurement of anti-influenza IgA antibody and IgG antibody. The measurement method was as follows.
as §2

[9] = 0.256 μmol dispersed in 5% αCD-added saline with OVA 10 μg, compared to control (OVA in 5% αCD-added saline)
[10] = 2.56 μmol in saline with OVA 10 μg, primary + secondary immunization, serum two weeks after, compared to OVA single administration group
[11] = 0.55 μg with influenza vaccine 20 μl
[12] = 1.64 μg with influenza vaccine 20 μl
[13] = 4.92 μg with influenza vaccine 20 μl

## CCCCCCCCCC(CCCCCCC)C(=O)N[C@@H](CSSC[C@H](NC(=O)C(CCCCCCC)CCCCCCCCC)C(=O)OC)C(=O)OC (stereo partly drawn) [SZ23, N,N′-bis(2-heptylundecanoyl)-L-cystine dimethyl ester]
[1]; final concentration 4 nM
  cell proliferation (Stimulation Index): significant cell proliferation
[1]; final concentration 400 nM
  cell proliferation (Stimulation Index): significant cell proliferation
[1]; final concentration 4 μM
  cell proliferation (Stimulation Index): significant cell proliferation
[2]; THP-1, final concentration 400 nM
  cell proliferation (Stimulation Index): significant cell proliferation
[2]; THP-1, final concentration 4 μM
  cell proliferation (Stimulation Index): significant cell proliferation
[3]; 0.0256 μmol in saline with OVA 10 μg
  production of anti OVA-specific IgE antibody: not observed
[3]; 0.256 μmol in saline with OVA 10 μg
  production of anti OVA-specific IgE antibody: not observed
[3]; 2.56 μmol in saline with OVA 10 μg
  production of anti OVA-specific IgE antibody: not observed
[4]; 0.0256 μmol in saline with OVA 10 μg, compared to OVA single administration group
  production of anti OVA-specific IgG1 subclass antibody: significantly increased
[4]; [9]
  production of anti OVA-specific IgG1 subclass antibody: significantly increased
[4]; 0.256 μmol in saline with OVA 10 μg, compared to OVA single administration group
  production of anti OVA-specific IgG1 subclass antibody: significantly increased
[4]; [10]
  production of anti OVA-specific IgG1 subclass antibody: significantly increased
[4]; all addition groups 2.56, 0.256 and 0.0256 μmol in saline, compared to aluminum hydroxide gel adjuvant 2.56 μmol (0.2 mg)
  production of anti OVA-specific IgG1 subclass antibody relative to ALUM addition group: of the same level

## CCCCCCCCCCCCCCCCCC(=O)N[C@@H](CSSC[C@H](NC(=O)CCCCCCCCCCCCCCCCC)C(=O)OC)C(=O)OC [SZ35, N,N′-bis(octadecanoyl)-L-cystine dimethyl ester]
[5]
  production of anti-influenza IgA antibody in the nasal cavity wash: significantly increased
[6]
  production of anti-influenza IgG antibody in the nasal cavity wash: significantly increased
[7]; [11]
  HI antibody value in the serum: significantly increase
[7]; [12]
  HI antibody value in the serum: significantly increase
[7]; [13]
  HI antibody value in the serum: significantly increase
[4]; [9]
  production of anti OVA-specific IgG1 subclass antibody: significantly increased
[4]; [10]
  production of anti OVA-specific IgG1 subclass antibody: significantly increased
[8]; [11]
  production of anti-influenza IgG1 subclass antibody in the serum: significantly increased
[8]; [12]
  production of anti-influenza IgG1 subclass antibody in the serum: significantly increased
[8]; [13]
  production of anti-influenza IgG1 subclass antibody in the serum: significantly increased
